Assays:
[1] = test system: Human Paneth cells (isolated intact human crypts from ileum); secretions tested on Salmonella typhimurium phoP-; assay: human Paneth cell secretion assay (bactericidal activity of crypt secretions); type: cell-based; conditions: for % Bacterial Cell Killing: S. typhimurium
Text: An assay was developed utilizing Human Paneth cells, obtained from biopsy material. Substances were screened in vitro, by exposing the isolated human tissue material briefly, and assessing the release of antibiotic activity.
A human Paneth cell secretion assay was developed using isolated intact human crypts from ileum obtained after bowel surgery, following published techniques. About 700 isolated crypts obtained by disruption with EDTA, as estimated using a hemocytometer, were transferred into microfuge tubes. Crypts were then incubated in minimal essential media containing non-essential amino acids, with or without various substances (such as isoleucine) in a total volume of 0.5 ml for 30 min or 1 hour at 37° C. After incubation the tissue suspension was spum, and the supernatants collected 10 microliter aliquots were then mixed with either 500 or 1000 colony forming units (cfu) of Salmonella typhimurium phoP- and incubated for 1 hour at 37° C. Surviving bacteria were quantitated by plating on nutrient agar. Bactericidal assays were conducted in triplicate. Data were expressed as the percent bacteria killed under experimental conditions relative to those recovered from controls.

fecal Lactobacilli = assay: population density of viable Lactobacilli in stools of individuals with Crohn's disease; type: in vivo, human; conditions: after 1 week of L-isoleucine administration (dosed as in Example 2) added to low-residual formula diet; 9 hospitalized Crohn's disease individuals
Protocol: The population density of viable Lactobacilli in the stools of a group of 9 hospitalized individuals with Crohn's disease was measured before and after a course of L-isoleucine administration. Subjects in this group had been supported nutritionally exclusively by total parenteral nutrition (TPN) for more than one month. One week after a low-residual formula diet was introduced, L-isoleucine was added to the diet (dosed as in Example 2) during the fmal week of hospitalization. Yogurt and other fermented products were restricted as were antibiotics.

Crohn's disease patients = assay: L-isoleucine administration to Crohn's disease patients (CDAI, abdominal symptoms); type: in vivo, human; conditions: Four grams/day oral, 4 weeks
Protocol: L-isoleucine was administered to nine volunteer Crohn's disease patients with mild abdominal symptoms. Four grams/day of powdered L-isoleucine divided into two doses was orally administered for 4 weeks. The CDAI (Crohn's disease activity index—Best W, Beckel J, Singleton J, Kern F J, Development of a Crohn's Disease Activity Index: National Cooperative Crohn's Disease Study. Gastroenterology 1976; 70:439-44) was calculated at the beginning and following the fourth week of the L-isoleucine administration period. All medication regiments were fixed throughout the study period.

## CC[C@H](C)[C@H](N)C(=O)O [isoleucine, L(+)isoleucine]
[1]; crypts exposed to 250 microgram/ml for 1 hour
  Bactericidal activity in secretions against S. typhimurium: detected
[1]; crypts exposed to L(+)isoleucine 250 microgram/ml for 1 hour, relative to controls
  % Bacterial Cell Killing: 63.7%
[1]; crypts exposed to L(+)isoleucine 250 microgram/ml for 1 hour, supernatant incubated with S. typhimurium 1 hour
  Surviving Bacteria: 140 ± 23
[1]; human Paneth cells, Salmonella typhimurium killing
  isoleucine-induced secretion effect, dose dependence: dose dependent
[1]; isoleucine 5 μg/ml, 30 minutes
  % Bacterial Cell Killing: 4.1%
[1]; isoleucine 50 μg/ml, 30 minutes
  % Bacterial Cell Killing: 22.5%
[1]; isoleucine 500 μg/ml, 30 minutes
  % Bacterial Cell Killing: 51.7%
Fecal Lactobacilli
  mean concentration of fecal Lactobacilli: significantly increased
Crohn's disease patients; Crohn's disease patients
  frequency of diarrhea: gradually decreased
  stool consistency: improved
Crohn's disease patients; two doses, nine Crohn's disease patients, mean CDAI at beginning 120
  mean CDAI at fourth week: 90

— patent publication US20030109582A1, “Methods and compositions for stimulating secretions from paneth cells” (priority 2001, published 2003)
